Three molecules from patent US10351519B2, “Sulfamate derivative compounds, processes for preparing them and their uses” (BIO-PHARM SOLUTIONS CO., LTD., priority 2016, dated 2019) can be followed below.

Holding throughout (assay type): in vivo
Experiment [1] deals with Sprague-Dawley rats. Put plainly: Antiallodynic activity on vincristine-induced pain model. Particulars: intraperitoneally; for ED50: Rattus norvegicus, ip. How it is done: Male, Sprague-Dawley rats (160-180 g, Nara Bio, Korea) were habituated for 1 week before surgery and allowed free access to food and water throughout the experimentation. Room temperature and humidity were maintained at 24±2 and 50±10%, respectively.
The vincristine-induced pain model was established by the procedure of Natsuko et al. (2001) with minor modifications. Vincristine was intravenously infused continuously for 14 days using a mini-osmotic pump as follows: 30 ug/kg vincristine sulfate solution (Hospira, Australia) was diluted with 0.9% saline. The pumps (Alzet Model 2002, USA) were filled with the vincristine solution and primed by incubation at 37 for 4 hours before the infusion. Briefly, animal were put under gaseous anesthesia with isoflurane. A catheter made from PE-60 tube was inserted into an external jugular vein in rat. Sham controls were prepared in the same manner, with the external jugular vein exposed, but with the external jugular vein not cut down. […]
Tactile sensitivity (Mechanical allodynia) was evaluated using von Frey monofilaments before and after treatment, and animals were used withdrawal threshold value was less than 4 g. […] The tactile sensitivity for ipsilateral hind paw was measured using the up-and-down method (Dixon, 1980) with seven von Frey monofilaments (0.4, 1, 2, 4, 6, 8, and 15 g) to 3 trials. […] The 50% paw withdrawal threshold for each paw was calculated using the following formula: [Xth] log=[vFr] log+ky where [vFr] is the force of the last von Frey used, k=0.2249 which is the average interval (in log units) between the von Frey monofilaments, and y is a value that depends upon the pattern of withdrawal responses (Dixon, 1980).
Antiallodynic effect of compound was evaluated at the three dose, intraperitoneally administrated in a volume of 5 ul/g, bw in a vehicle of 30% (v/v) PEG or 20% (v/v) Tween 80. […]
The relative values compared to the sham (% control) were calculated and shown in Table 5, which show an antiallodynic effect of Compound 2&7 on vincristine-induced pain model in rats.

The test system of experiment [2] is Sprague-Dawley rats. Put plainly: Lithium-pilocarpine induced epilepsy test, intervention. As to conditions: Rattus norvegicus, iv, i.v. at SE onset, read-out: Lithium pilocarpine model(inter) ED50. How it is done:
Male Sprague-Dawley rats (purchased from Orient Bio Inc. Korea) of body weight 175 grams were used for these studies and 3 rats per cage were housed for 4-5 days. On the day prior to SE, rats received 127 mg/kg lithium chloride (Sigma, St. Louis, Mo., U.S.A.) intraperitoneally (i.p.). Approximately 18-20 h following this treatment, rats were given an i.p. injection of CD97 dose (30-43 mg/kg) pilocarpine (Sigma). An i.p. injection of 2 mg/kg methyl-scopolamine (Sigma) was administered 30 min prior to pilocarpine to block the effects of the muscarinic agonist on peripheral cholinergic receptors. Test drugs were dissolved in 20% tween80 (Sigma).
The drugs were administered intravenously (i.v.) in a volume of 2 ul/g body weight at SE onset. Pharmacological effects of all of the test materials were evaluated to compare test groups (n=3-6) with a control group (n=3-6). Control group was administered vehicle only. The animals were then transferred to observation cages and observed continuously for 90 min. Seizure was elicited in approximately 95% of the control group. Protection was defined as complete absence of seizure grade 3-5 (Racine scale; Racine, 1972) over the 90-min observation period. The effective dose of the compound necessary to protect 50% of the animals against seizures compared to controls (i.e. ED50) was determined by a curve fitting program (Excel 2007, Microsoft).

The subject of another experiment is ICR mice. Put plainly: Chemical induced seizure model (BIC). Particulars: for ED50: Mus musculus, ip. How it is done: Male ICR mice (purchased from Orient Bio Inc. Korea) of body weight 19-26 g were used for these studies. The test materials were administered intraperitoneal route in a volume of 10 ul/g weight. Pharmacological effects of all the test materials were evaluated to compared test groups (n=6) with a control group (n=6). Control group was administrated vehicle, only. The peak time was determined by administration test material's random dose for 0.5-4 hour. The time that the most protect was defined peak time and ED50 was determined by other dose administration at peak time. BIC was dissolved in 0.9% saline and administered subcutaneously (s.c.) at its CD97 (convulsive dose 97%) the dose of BIC that produced clonic seizures in 97% into a loose fold of skin in the midline of the neck in a volume of 10 ul/g body weight. The animals were then transferred to observation cages and observed continuously for 30 min. Clonic seizure was elicited in approximately 95% of control group. Protection was defined as complete absence of a clonic seizure over the 30-min observation period. The time that the most protect was defined peak time and ED50 was determined by other dose administration at peak time. The effective dose of compound necessary to protect against seizures to 50% of controls (i.e. ED50) was determined by log probit analysis using Excel 2007 (Microsoft).

Take `C[C@H](OS(N)(=O)=O)[C@@H](O)c1c(Cl)cccc1Cl` [Example 7, (1S, 2S)-1-(2,6-dichlorophenyl)-1-hydroxypropan-2-yl sulfamate]: the ED50 was determined as 10.3 mg/kg with Sprague-Dawley rats [1], 23.3 mg/kg in the experiment on Sprague-Dawley rats [2] and 30.8 mg/kg in the experiment on ICR mice. In addition, the “Vincristine-induced pain model Peak Time” value in the experiment on Sprague-Dawley rats [1] was found to be 0.5 h. Moreover, the “BIC(ip) Peak Time” value with ICR mice amounted to 1 h.
Take `C[C@@H](OS(N)(=O)=O)[C@H](O)c1c(Cl)cccc1Cl` [Example 8, (1R, 2R)-1-(2,6-dichlorophenyl)-1-hydroxypropan-2-yl sulfamate]: the ED50 with Sprague-Dawley rats [2] was 44.8 mg/kg. Further, in the experiment with ICR mice, the “BIC(ip) Peak Time” value was determined as 1 h and the ED50 is 73.9 mg/kg.
For the molecule `C[C@@H](OS(N)(=O)=O)[C@H](O)c1ccccc1Cl` [Example 2, (1R, 2R)-1-(2-chlorophenyl)-1-hydroxypropan-2-yl sulfamate], in the experiment with Sprague-Dawley rats [1], the ED50 is above 20 mg/kg.

Broadly, the ED50 is the midpoint of the dose-response relation.
